Drawing on article PMC5290327, “SC83288 is a clinical development candidate for the treatment of severe malaria” (Nature Communications, 2017), this text covers remaining binding for 1 compound.

Holding throughout (assay): KINOMEscan
What all share (format): binding
Holding throughout (details): read-out: Remaining enzyme activity

One assay addresses T1, CIT (Homo sapiens, UniProt O14578).
T1 construct: purchased Ambit (DiscoverX) KINOMEscan; Cerep
The method, boiled down: (§1)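 Binding, not activity: the compound competes with an active-site directed ligand on beads for DNA-tagged human kinase. Quantitative PCR of the tag gives the kinase recovered. Single concentration, 10 μM SC81458.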

For the next assay, the target named is T2, EPHA4 (Homo sapiens, UniProt P54764).
T2 construct: purchased Ambit (DiscoverX) KINOMEscan; Cerep
The method, boiled down:
as §1

The target of another assay is T3, MARK3 (Homo sapiens, UniProt P27448).
T3 construct: purchased Ambit (DiscoverX) KINOMEscan; Cerep
The method in brief: as §1

A further assay concerns the target T4, MET(Y1235D) (Homo sapiens, UniProt P08581, Y1235D).
T4 construct: purchased Ambit (DiscoverX) KINOMEscan; Cerep
The method, boiled down:
as §1

The next assay deals with T5, NEK2 (Homo sapiens, UniProt P51955).
T5 construct: purchased Ambit (DiscoverX) KINOMEscan; Cerep
The method in brief:
as §1

The target in a further assay is T6, PFTK1 (Homo sapiens, UniProt O94921).
T6 construct: purchased Ambit (DiscoverX) KINOMEscan; Cerep
The method in brief:
as §1

Each structure is given as a SMILES string.

T2 sequence (P54764 20-986): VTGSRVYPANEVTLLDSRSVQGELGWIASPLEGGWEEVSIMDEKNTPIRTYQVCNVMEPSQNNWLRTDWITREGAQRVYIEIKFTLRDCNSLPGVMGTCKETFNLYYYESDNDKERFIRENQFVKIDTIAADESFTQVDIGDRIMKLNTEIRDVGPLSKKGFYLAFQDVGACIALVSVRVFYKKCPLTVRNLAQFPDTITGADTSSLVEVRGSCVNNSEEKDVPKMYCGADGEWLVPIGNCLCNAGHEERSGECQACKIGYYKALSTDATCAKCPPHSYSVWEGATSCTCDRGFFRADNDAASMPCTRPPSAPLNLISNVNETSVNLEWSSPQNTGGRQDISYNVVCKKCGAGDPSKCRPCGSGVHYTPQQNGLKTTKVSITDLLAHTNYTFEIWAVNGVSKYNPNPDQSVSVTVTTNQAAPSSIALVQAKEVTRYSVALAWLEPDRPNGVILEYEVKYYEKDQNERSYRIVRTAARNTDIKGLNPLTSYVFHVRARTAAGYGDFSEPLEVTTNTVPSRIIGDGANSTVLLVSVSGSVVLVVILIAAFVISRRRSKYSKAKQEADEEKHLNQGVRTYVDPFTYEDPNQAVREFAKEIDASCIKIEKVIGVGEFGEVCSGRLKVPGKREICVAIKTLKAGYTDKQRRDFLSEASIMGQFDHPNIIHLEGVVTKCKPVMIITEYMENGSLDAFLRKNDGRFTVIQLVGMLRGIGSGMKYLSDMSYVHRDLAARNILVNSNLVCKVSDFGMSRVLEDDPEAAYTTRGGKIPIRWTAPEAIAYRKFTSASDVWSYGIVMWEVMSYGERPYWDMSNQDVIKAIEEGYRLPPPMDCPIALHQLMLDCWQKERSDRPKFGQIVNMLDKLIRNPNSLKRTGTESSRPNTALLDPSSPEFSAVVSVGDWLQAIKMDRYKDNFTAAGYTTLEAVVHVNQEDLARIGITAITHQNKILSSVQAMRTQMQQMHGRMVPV
T5 sequence (P51955 whole entry): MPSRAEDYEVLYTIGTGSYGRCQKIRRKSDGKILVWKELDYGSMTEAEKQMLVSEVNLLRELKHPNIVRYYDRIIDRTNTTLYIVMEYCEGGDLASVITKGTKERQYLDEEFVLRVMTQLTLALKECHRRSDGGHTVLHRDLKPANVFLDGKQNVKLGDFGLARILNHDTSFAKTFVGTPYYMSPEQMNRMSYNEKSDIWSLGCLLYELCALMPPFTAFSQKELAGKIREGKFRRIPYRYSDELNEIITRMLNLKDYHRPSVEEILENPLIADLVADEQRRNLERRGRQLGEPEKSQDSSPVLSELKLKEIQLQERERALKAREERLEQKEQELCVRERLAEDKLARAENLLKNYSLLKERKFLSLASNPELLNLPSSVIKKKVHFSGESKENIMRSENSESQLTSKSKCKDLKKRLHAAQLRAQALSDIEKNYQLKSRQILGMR
T1 sequence (O14578 whole entry): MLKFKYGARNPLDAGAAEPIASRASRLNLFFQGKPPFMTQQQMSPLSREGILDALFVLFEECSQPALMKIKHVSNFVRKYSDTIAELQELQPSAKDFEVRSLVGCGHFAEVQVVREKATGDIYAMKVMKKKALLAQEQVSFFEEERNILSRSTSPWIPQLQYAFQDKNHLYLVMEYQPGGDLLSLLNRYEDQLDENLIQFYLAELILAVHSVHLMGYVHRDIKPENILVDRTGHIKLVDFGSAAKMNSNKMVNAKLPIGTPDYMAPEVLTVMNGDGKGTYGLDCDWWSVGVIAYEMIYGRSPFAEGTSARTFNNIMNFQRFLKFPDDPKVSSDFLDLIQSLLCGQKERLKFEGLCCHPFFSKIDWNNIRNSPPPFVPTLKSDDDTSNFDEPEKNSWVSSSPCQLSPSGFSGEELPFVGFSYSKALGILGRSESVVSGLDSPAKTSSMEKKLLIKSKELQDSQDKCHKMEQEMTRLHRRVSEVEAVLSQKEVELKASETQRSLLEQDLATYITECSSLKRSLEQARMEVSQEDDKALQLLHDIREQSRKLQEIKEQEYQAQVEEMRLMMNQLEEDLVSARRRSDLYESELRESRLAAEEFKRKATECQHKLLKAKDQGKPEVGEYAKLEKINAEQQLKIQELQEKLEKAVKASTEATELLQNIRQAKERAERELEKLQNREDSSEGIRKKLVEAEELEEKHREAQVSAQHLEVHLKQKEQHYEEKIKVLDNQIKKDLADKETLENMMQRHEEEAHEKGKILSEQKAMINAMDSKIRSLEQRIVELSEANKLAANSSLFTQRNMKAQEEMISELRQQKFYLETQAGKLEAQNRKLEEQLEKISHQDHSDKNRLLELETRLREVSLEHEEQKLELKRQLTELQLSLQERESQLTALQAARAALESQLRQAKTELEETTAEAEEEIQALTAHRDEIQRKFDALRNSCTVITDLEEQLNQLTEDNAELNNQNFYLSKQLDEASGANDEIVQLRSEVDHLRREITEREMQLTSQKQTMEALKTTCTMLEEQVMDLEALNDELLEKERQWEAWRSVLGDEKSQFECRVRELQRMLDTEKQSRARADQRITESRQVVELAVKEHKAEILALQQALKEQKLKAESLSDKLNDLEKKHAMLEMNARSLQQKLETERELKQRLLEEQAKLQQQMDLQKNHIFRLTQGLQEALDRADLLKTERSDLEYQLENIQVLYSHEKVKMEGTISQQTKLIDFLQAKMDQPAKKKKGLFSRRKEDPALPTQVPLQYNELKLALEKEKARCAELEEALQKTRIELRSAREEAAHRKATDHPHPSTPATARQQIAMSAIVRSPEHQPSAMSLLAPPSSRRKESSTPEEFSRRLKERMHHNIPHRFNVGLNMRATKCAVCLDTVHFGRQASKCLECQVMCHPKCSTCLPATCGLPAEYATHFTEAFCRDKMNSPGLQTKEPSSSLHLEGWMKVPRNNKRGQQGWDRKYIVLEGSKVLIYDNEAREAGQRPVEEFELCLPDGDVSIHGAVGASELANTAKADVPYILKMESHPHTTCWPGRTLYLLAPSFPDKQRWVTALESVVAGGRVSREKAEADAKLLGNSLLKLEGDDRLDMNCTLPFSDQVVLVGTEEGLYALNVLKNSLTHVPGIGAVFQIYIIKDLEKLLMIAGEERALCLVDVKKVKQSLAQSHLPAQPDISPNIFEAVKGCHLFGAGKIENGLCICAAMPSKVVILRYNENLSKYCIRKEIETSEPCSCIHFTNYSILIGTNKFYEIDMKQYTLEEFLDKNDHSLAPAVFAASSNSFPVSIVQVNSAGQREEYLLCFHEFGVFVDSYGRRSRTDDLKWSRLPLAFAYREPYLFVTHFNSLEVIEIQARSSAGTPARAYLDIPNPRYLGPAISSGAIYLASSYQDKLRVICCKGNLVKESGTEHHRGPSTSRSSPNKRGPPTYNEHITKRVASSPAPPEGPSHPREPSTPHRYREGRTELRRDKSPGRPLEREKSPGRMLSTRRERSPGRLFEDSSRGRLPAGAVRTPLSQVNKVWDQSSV
T3 sequence (P27448 whole entry): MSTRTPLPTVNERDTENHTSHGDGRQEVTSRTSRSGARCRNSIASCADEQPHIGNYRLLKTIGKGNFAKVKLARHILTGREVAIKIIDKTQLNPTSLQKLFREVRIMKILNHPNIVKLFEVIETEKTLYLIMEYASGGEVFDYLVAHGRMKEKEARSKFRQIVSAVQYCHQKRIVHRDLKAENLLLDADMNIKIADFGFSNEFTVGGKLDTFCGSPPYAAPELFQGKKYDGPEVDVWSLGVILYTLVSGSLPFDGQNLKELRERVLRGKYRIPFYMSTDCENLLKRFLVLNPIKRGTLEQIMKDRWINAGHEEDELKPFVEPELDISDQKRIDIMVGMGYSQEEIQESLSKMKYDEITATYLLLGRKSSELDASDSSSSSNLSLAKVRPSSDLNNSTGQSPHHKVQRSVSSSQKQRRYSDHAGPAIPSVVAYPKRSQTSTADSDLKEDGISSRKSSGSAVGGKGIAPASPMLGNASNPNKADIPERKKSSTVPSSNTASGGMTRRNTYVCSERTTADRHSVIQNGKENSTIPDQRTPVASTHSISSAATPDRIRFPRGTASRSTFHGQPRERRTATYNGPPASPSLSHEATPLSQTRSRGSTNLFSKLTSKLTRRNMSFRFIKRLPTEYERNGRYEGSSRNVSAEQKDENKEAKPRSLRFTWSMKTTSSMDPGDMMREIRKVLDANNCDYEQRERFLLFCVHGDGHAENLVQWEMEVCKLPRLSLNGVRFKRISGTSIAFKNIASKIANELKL
T6 sequence (O94921 whole entry): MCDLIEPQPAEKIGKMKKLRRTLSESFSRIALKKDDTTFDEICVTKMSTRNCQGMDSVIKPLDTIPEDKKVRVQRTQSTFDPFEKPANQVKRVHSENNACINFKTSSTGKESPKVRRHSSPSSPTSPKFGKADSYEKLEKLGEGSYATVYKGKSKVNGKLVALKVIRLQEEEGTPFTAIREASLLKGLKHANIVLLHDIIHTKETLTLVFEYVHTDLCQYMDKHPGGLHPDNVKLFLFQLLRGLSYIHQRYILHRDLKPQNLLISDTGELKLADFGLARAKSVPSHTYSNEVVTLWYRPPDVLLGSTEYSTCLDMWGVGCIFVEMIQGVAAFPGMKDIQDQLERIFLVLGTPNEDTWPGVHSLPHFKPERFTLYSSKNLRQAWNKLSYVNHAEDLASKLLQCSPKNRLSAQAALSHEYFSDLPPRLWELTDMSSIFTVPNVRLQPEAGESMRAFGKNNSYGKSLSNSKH

As for `CCCCN1CCN(C(=N)c2cccc(NC(=O)Nc3ccc(S(=O)(=O)NCc4ccc(S(N)(=O)=O)cc4)cc3)c2)CC1` [SC81458, 4-(3-(3-((4-butylpiperazin-1-yl)(imino)methyl)phenyl)ureido)-N-(4-sulfamoylbenzyl) benzenesulfonamide], the remaining binding at 10 µM on CIT turned out to be 94%; on EPHA4, 98%; at MARK3 it was 99%; on MET(Y1235D), 100%; at NEK2 it was 96%; at PFTK1, 100%.
